From ChEMBL document CHEMBL3600291, “Synthesis and carbonic anhydrase I, II, IX and XII inhibitory activity of sulfamates incorporating piperazinyl-ureido moieties” (Bioorg Med Chem, 2015)

What was measured:
[1] = target: Carbonic anhydrase 1 (Homo sapiens, UniProt P00915); assay: Inhibition of human recombinant carbonic anhydrase-1 pre-incubated for 15 mins by stopped-flow CO2 hydration assay
[2] = target: Carbonic anhydrase 9 (Homo sapiens, UniProt Q16790); assay: Inhibition of human recombinant carbonic anhydrase-9 pre-incubated for 15 mins by stopped-flow CO2 hydration assay
[3] = target: Carbonic anhydrase 2 (Homo sapiens, UniProt P00918); assay: Inhibition of human recombinant carbonic anhydrase-2 pre-incubated for 15 mins by stopped-flow CO2 hydration assay
[4] = target: Carbonic anhydrase 12 (Homo sapiens, UniProt O43570); assay: Inhibition of human recombinant carbonic anhydrase-12 pre-incubated for 15 mins by stopped-flow CO2 hydration assay
Sequence of Carbonic anhydrase 12 (O43570 whole entry): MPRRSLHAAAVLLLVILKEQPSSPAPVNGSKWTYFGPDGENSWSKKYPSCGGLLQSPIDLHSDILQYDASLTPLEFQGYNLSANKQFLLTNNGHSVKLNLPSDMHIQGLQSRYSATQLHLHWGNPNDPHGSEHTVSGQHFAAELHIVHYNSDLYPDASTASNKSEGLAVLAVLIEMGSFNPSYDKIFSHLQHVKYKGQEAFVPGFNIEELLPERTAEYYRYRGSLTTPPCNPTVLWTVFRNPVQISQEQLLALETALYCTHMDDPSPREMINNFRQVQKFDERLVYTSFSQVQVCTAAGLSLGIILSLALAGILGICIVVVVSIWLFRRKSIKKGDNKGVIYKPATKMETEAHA

Sequence of Carbonic anhydrase 1 (P00915 whole entry): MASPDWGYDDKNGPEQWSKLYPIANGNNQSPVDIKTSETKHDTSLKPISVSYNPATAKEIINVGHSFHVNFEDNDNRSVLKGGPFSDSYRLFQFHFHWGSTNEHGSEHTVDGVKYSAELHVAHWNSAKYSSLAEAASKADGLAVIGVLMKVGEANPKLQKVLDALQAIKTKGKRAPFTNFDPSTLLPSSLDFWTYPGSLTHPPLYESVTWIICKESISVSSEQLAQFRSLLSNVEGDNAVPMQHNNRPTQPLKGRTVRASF

| SMILES | Ki [1] [nM] | Ki [2] [nM] | Ki [3] [nM] | Ki [4] [nM] |
| --- | --- | --- | --- | --- |
| O=C(Nc1ccc(O)cc1)N1CCN(c2ccc(Cl)cc2)CC1 | > 10000 | 80.5 | – | – |
| O=C(Nc1ccc(O)cc1)N1CCN(Cc2ccccc2)CC1 | > 10000 | 113 | – | – |
| NS(=O)(=O)Oc1ccc(NC(=O)N2CCN(c3nccc(-c4ccc(C(F)(F)F)cc4)n3)CC2)cc1 | – | 24.3 | – | – |
| NS(=O)(=O)Oc1ccc(NC(=O)N2CCN(Cc3ccccc3)CC2)cc1 | 317 | 10.5 | 11.7 | 1 |
| Cc1cccc(N2CCN(C(=O)Nc3ccc(O)cc3)CC2)c1 | – | 549 | – | – |
| NS(=O)(=O)Oc1ccc(NC(=O)N2CCN(c3ccccc3)CC2)cc1 | 897 | 11.1 | 71.9 | 1 |
| Cc1cccc(N2CCN(C(=O)Nc3ccc(OS(N)(=O)=O)cc3)CC2)c1 | 851 | 0.91 | 15.9 | 35.8 |
| O=C(Nc1ccc(O)cc1)N1CCN(c2ccccc2)CC1 | – | 121 | – | – |
| NS(=O)(=O)Oc1ccc(NC(=O)N2CCN(c3ccc(F)cc3)CC2)cc1 | 9.4 | 61.5 | 18.2 | 64.7 |
| Cc1cccc(N2CCN(C(=O)Nc3ccc(OS(N)(=O)=O)cc3)CC2)c1C | 63.5 | 32.3 | 11.1 | 1 |
| NS(=O)(=O)Oc1ccc(NC(=O)N2CCN(c3nccc(-c4ccc(Br)cc4)n3)CC2)cc1 | – | 114 | – | – |
| COc1ccc(N2CCN(C(=O)Nc3ccc(OS(N)(=O)=O)cc3)CC2)cc1 | 282 | 114 | 9.1 | 1.1 |
| COc1cccc(N2CCN(C(=O)Nc3ccc(OS(N)(=O)=O)cc3)CC2)c1 | 88.1 | 34.1 | 11.2 | 37 |
| NS(=O)(=O)Oc1ccc(NC(=O)N2CCN(c3nccc(-c4cc5ccccc5o4)n3)CC2)cc1 | 70.2 | 6.7 | 1 | 1 |
| O=C(Nc1ccc(O)cc1)N1CCN(c2ccc(F)cc2)CC1 | – | 36.9 | – | – |
| NS(=O)(=O)Oc1ccc(NC(=O)N2CCN(c3ccc(Cl)cc3)CC2)cc1 | 581 | 10.4 | 16.9 | 84.5 |
